Experimental data published in patent publication US20100160356A1, “NOVEL CYCLOBUTYL COMPOUNDS AS KINASE INHIBITORS” (priority 2006, published 2010).

Columns and labels:
IGF1R = IGF1R (Homo sapiens, UniProt P08069); assay: Inhibition of IGF1R (flashplate assay); assay type: biochemical; settings: flashplate method
Experimental: (§1) The test plates used are 96-well flashplate microtitre plates from Perkin Elmer (USA). The components of the kinase reaction are pipetted into the assay plate. The IGF1R kinase is incubated for 1 hr. with radioactively labelled ^33P-ATP in the presence and absence of test substances in a total volume of 100 μl at room temperature together with biotinylated poly(Glu, Tyr)4:1. The reaction is terminated using 25 μl of a 200 mM EDTA solution. After incubation for a further 30 min at room temperature, the supernatants are removed by suction, and the wells are washed three times with 100 μl of 0.9% NaCl solution each time. The radioactivity is measured using a Topcount scintillation counter (PerkinElmer, USA). IC50 values are calculated using the RS1 computer program.

IGF1 receptor (IGF1R) = molecular target: T1, IGF1 receptor (IGF1R) (Homo sapiens, UniProt P08069); assay: Inhibition of IGF1R (ELISA assay), IGF1-stimulated autophosphorylation in cells; assay type: cell-based; settings: human tumour cells stimulated with IGF1, read-out: IC50 IGF (ELISA)
T1 construct: endogenous in cells; host or cells: MCF-7 or Calu-6
Experimental: The stimulation induces an autophosphorylation of tyrosine residues in the cytoplasmatic IGF1R domain, which triggers signal transduction cascades, which result in inhibition of apoptosis and proliferation of the cells.
The amount of phosphorylated IGF1R is determined by a receptor-specific capture ELISA or an analogous LUMINEX assay. The IGF1R from cell lysates is bound to a 96-well ELISA plate or LUMINEX beads by means of a specific antibody (“capturing”), and the tyrosine phosphorylation is detected using a biotin-labelled anti-phosphotyrosine antibody and a streptavidin-peroxidase conjugate by a chemiluminescence method or by means of a fluorescence-labelled anti-phosphotyrosine antibody.
For determination of the activity of kinase inhibitors, cells are pretreated with increasing concentrations of these compounds for 45 min and subsequently stimulated using IGF1 for 5 min. As internal control, the biological activity of the ligand IGF1 is checked, and a concentration series of an IGF1R reference inhibitor is measured.

[1] = molecular target: T2, FAK (focal adhesion kinase) (Homo sapiens, UniProt Q05397); assay: Inhibition of FAK (ELISA assay), FAK phosphorylation in cells; assay type: cell-based; settings: human cells with FAK amplification
T2 construct: endogenous in cells; host or cells: Calu-6 or HT-29
Experimental: Activated FAK promotes the invasive growth of tumour cells and inhibits anoikis.
The amount of phosphorylated FAK is determined by a specific capture ELISA or an analogous LUMINEX assay. FAK from cell lysates is bound to a 96-well ELISA plate or LUMINEX beads by means of a specific antibody (“capturing”), and the tyrosine phosphorylation is detected using a biotin-labelled anti-phosphotyrosine antibody and a streptavidin-peroxidase conjugate by a chemiluminescence method or by means of a fluorescence-labelled anti-phosphotyrosine antibody.
For determination of the activity of kinase inhibitors, cells are pretreated with increasing concentrations of these compounds for 45 min, and the FAK phosphorylation is then determined. As internal control, a concentration series of a reference inhibitor is measured.

insulin receptor (InsR) = molecular target: T3, insulin receptor (InsR) (Homo sapiens, UniProt P06213); assay: Inhibition of InsR (ELISA assay), insulin-stimulated autophosphorylation in cells; assay type: cell-based; settings: human cells stimulated with insulin
T3 construct: endogenous in cells; host or cells: HepG2
Experimental: Cultivated human cells which express the insulin receptor (InsR) (for example HepG2) are stimulated using human insulin, the natural ligand of InsR. The stimulation induces autophosphorylation of tyrosine residues in the cytoplasmatic InsR domain, which triggers signal transduction cascades, which initiate various biological reactions of the cells. The amount of phosphorylated InsR is determined by a receptor-specific capture ELISA or an analogous LUMINEX assay. The InsR from cell lysates is bound to a 96-well ELISA plate or LUMINEX beads by means of a specific antibody (“capturing”), and the tyrosine phosphorylation is detected using a biotin-labelled anti-phosphotyrosine antibody and a streptavidin-peroxidase conjugate by a chemiluminescence method or by means of a fluorescence-labelled anti-phosphotyrosine antibody. For determination of the activity of kinase inhibitors, cells are pretreated with increasing concentrations of these compounds for 45 min and subsequently stimulated using insulin for 5 min. As internal control, the biological activity of the ligand insulin is checked, and a concentration series of a reference inhibitor is measured.

Met = Met (Homo sapiens, UniProt P08581); assay: Inhibition of Met (flashplate method); assay type: biochemical
SGK1 = molecular target: T4, SGK1 (Homo sapiens, UniProt O00141); assay: Inhibition of SGK1 (flashplate assay); assay type: biochemical; settings: flashplate method
T4 sequence (O00141 1-431): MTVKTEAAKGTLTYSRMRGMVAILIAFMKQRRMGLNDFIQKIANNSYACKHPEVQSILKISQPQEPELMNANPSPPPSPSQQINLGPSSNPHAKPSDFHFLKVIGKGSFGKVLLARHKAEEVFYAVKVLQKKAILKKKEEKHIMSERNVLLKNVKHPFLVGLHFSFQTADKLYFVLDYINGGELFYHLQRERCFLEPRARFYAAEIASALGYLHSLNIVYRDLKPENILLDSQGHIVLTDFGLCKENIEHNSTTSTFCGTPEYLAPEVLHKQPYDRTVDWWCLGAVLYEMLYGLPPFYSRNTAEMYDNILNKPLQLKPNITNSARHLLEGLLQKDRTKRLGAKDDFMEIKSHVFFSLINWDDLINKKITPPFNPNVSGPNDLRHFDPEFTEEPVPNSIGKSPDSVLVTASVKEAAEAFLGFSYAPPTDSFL
Experimental: as §1, with “are 384-well” for “are 96-well”, “The SGK1” for “The IGF1R”, “for 3” for “for 1”

TGFβR1 = molecular target: T5, TGFβR1 (Homo sapiens, UniProt P36897); assay: Inhibition of TGFβR1 (flashplate assay); assay type: biochemical; settings: flashplate method
T5 sequence (P36897 34-503): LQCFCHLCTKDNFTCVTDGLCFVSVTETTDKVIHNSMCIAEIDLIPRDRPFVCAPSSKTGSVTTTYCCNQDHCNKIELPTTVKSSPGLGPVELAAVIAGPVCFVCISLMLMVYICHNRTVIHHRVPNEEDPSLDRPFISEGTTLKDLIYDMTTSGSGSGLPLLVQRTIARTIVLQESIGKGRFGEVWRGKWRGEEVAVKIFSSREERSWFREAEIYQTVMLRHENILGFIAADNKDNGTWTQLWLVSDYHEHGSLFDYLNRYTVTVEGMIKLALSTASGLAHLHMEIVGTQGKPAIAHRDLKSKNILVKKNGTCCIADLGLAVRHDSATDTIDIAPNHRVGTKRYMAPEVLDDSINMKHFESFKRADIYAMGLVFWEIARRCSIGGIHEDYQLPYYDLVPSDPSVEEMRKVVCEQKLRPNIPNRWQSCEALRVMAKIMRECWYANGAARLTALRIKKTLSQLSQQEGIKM
Experimental: The test is carried out as described in Example B1b for IGF1R. A biotinylated is added to the TGFβR1 kinase.
The kinase assay is carried out as a 384-well flashplate assay.
The components of the kinase reaction are pipetted into the assay plate. The TGFβR1 kinase is incubated for 45 min with radioactively labelled ^33P-ATP in the presence and absence of test substances together with biotinylated substrate in a total volume of 35 μl. The reaction is terminated using 25 μl of 200 mM EDTA solution, removed by suction after 30 min at room temperature, and the wells are washed with three times with 100 μl of 0.9% NaCl solution each time. The radioactivity is measured using a Topcount scintillation counter (PerkinElmer, USA). IC50 values are calculated using the RS1 computer program.

VEGF-2 = VEGF-2 (Homo sapiens, UniProt P35968); assay: Inhibition of VEGF-2 (flashplate assay); assay type: biochemical; settings: flashplate method
Experimental: as §1, with “are 384-well” for “are 96-well”, “The VEGF-2” for “The IGF1R”, “for 3” for “for 1”

TIE2 = TIE2 (Homo sapiens, UniProt Q02763); assay: Inhibition of TIE2 (flashplate assay); assay type: biochemical; settings: flashplate method
Experimental: B4: inhibition of T1E2 (Flashplate Assay)
as §1, with “are 384-well” for “are 96-well”, “The TIE2” for “The IGF1R”, “for 3” for “for 1”

PDGFRβ = PDGFRβ (Homo sapiens, UniProt P09619); assay: Inhibition of PDGFRβ (flashplate assay); assay type: biochemical; settings: flashplate method
Experimental: as §1, with “The PDGFRβ” for “The IGF1R”, “for 3” for “for 1”, “temperature (here autophosphorylation of the kinase).” for “temperature together with biotinylated poly(Glu, Tyr)4:1.”, “using 150” for “using 25”, “a 60” for “a 200”, “with 200” for “with 100”

CHK = assay: Inhibition of CHK (flashplate method); assay type: biochemical

T2 sequence (Q05397 whole entry): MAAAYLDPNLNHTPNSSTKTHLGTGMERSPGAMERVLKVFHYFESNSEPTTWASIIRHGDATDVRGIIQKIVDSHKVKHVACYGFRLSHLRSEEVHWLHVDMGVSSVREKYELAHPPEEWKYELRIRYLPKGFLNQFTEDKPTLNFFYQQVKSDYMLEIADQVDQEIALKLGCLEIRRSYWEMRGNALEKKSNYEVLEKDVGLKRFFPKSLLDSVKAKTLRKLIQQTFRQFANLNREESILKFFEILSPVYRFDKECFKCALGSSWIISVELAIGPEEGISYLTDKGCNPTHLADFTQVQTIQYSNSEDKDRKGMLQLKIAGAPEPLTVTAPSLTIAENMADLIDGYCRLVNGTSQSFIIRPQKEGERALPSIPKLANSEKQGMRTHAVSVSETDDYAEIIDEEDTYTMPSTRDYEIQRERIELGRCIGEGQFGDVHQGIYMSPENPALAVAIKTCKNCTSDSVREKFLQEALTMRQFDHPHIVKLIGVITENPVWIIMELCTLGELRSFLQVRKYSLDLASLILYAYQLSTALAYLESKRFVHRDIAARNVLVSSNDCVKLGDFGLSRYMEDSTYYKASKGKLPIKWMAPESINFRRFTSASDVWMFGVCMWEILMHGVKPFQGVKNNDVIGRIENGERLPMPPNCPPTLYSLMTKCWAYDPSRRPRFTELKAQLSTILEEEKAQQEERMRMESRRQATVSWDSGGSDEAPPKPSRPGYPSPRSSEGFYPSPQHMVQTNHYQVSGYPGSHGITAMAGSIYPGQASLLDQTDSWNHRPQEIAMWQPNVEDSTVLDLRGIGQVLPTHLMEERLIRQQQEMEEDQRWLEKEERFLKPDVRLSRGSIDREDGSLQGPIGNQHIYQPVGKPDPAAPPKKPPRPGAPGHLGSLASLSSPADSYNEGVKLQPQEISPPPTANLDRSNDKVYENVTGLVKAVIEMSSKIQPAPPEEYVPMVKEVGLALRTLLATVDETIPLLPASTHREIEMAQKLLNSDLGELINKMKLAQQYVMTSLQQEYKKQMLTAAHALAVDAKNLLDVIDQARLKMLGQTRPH
Chain of VEGF-2 (P35968 20-1356): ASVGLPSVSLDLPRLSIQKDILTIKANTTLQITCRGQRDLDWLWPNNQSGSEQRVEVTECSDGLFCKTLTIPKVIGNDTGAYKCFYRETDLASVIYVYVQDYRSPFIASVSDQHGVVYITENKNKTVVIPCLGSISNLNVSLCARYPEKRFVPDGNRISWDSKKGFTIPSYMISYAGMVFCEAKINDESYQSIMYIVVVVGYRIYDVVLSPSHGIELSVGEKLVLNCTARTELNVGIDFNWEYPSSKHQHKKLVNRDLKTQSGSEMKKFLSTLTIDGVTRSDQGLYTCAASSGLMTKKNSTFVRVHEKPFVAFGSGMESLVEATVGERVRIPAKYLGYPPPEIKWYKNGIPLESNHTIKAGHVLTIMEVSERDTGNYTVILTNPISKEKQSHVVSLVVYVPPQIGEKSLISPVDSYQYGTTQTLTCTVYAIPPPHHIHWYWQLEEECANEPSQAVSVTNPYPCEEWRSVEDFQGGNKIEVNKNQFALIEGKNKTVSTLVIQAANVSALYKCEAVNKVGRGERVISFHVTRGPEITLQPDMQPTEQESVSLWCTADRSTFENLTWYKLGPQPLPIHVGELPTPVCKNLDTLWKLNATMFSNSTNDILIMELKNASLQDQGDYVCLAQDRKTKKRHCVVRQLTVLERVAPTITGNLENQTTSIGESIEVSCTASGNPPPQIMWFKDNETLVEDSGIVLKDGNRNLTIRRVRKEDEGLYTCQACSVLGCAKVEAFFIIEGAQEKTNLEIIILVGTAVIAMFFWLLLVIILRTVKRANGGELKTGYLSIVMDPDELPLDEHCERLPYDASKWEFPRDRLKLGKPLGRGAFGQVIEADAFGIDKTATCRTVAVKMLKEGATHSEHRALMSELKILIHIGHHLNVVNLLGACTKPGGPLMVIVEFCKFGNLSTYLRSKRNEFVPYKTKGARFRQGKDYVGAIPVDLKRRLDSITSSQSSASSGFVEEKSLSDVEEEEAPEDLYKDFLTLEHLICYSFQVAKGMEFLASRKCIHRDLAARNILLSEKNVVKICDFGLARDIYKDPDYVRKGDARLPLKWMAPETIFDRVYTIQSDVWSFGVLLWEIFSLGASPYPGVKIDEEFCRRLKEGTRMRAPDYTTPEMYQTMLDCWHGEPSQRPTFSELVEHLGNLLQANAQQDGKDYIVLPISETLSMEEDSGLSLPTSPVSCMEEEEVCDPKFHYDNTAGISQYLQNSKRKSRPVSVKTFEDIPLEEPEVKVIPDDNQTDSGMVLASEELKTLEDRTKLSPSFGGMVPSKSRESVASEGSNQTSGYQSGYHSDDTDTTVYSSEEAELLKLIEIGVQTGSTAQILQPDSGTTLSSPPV
Chain of PDGFRβ (P09619 33-1106, species assumed): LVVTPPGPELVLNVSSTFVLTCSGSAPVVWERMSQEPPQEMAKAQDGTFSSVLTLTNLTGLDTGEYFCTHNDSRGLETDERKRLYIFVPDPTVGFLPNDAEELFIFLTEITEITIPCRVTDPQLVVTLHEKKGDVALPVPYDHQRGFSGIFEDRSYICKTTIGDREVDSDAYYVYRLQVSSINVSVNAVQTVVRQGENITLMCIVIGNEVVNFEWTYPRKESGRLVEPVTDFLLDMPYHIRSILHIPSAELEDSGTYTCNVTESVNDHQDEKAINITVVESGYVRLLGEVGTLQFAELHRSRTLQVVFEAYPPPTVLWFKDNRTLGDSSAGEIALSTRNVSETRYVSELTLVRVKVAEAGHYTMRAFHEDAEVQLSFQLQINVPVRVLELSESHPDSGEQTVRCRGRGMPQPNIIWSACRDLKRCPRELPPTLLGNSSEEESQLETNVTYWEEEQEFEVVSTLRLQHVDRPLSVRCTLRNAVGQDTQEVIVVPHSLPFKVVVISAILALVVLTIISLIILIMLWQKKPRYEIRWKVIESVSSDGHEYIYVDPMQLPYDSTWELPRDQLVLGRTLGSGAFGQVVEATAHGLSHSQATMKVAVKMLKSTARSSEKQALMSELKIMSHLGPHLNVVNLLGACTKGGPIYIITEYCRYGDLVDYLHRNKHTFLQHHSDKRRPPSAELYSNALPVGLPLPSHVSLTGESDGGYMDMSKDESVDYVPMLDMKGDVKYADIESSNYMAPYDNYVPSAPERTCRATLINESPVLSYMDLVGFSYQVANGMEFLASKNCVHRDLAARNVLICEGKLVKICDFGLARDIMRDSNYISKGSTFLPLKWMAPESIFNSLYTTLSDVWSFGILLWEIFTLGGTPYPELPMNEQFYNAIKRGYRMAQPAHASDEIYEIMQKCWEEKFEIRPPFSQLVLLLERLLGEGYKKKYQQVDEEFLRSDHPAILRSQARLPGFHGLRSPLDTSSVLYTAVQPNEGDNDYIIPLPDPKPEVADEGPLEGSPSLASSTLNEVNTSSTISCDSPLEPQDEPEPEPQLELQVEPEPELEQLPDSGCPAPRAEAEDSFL
T1 sequence (P08069 31-1367): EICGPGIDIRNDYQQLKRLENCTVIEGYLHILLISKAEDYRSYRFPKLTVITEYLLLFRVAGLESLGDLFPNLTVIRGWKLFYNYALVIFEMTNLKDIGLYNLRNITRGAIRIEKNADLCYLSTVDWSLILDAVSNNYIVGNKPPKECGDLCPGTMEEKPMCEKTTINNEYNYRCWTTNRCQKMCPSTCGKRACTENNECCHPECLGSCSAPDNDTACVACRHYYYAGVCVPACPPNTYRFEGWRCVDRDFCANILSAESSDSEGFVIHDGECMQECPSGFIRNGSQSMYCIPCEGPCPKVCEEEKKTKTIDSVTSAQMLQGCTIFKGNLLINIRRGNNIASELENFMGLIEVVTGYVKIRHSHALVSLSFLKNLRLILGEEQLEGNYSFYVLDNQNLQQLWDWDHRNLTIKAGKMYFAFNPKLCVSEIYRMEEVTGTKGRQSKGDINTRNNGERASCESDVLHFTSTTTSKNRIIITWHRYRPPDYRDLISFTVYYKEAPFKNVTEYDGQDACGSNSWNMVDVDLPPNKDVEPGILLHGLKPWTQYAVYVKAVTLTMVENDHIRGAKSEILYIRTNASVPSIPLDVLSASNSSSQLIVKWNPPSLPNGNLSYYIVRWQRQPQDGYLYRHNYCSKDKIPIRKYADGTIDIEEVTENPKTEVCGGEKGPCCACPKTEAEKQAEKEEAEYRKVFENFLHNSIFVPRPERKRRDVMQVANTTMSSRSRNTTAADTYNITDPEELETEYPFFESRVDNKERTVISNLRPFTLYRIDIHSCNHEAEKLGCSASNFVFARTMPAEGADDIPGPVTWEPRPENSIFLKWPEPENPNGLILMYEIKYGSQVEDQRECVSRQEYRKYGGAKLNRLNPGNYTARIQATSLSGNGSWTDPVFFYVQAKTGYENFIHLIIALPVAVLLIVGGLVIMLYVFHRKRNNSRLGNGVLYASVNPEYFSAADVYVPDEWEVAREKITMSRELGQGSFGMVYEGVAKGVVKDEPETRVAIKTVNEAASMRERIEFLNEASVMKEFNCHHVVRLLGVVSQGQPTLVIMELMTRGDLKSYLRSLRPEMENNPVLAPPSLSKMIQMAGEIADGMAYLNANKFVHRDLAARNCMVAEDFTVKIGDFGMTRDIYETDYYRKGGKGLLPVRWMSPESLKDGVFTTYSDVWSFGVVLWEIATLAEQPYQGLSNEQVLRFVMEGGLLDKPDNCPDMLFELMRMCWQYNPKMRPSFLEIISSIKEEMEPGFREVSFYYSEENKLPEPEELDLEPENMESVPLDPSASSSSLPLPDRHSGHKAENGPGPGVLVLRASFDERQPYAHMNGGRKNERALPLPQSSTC
Chain of IGF1R (P08069 31-1367, species assumed): as the sequence (P08069 31-1367) above

Row | SMILES | IC50 (IGF1R) | IC50 (IGF1 receptor (IGF1R)) | IC50 [1] | IC50 (insulin receptor (InsR)) | IC50 (Met) | IC50 (SGK1) | IC50 (TGFβR1) | IC50 (VEGF-2) | IC50 (TIE2) | IC50 (PDGFRβ) | melting point | IC50 (CHK)
1 | C[Si](C)(COc1cccc(-c2cn(C3CC(CN)C3)c3ncnc(N)c23)c1)c1ccccc1 (stereo not shown) [Compound 8] | 320 nM | 810 nM | 16000 nM | 9500 nM | 1100 nM |  |  |  |  |  |  | 
2 | C[Si](C)(C)COc1cccc(-c2cn(C3CC(CN)C3)c3ncnc(N)c23)c1 (stereo not shown) [Compound 9] | 130 nM | 570 nM | 14000 nM | 5500 nM |  |  |  |  |  |  |  | 
3 | NCC1CC(n2cc(-c3cccc(N)c3)c3c(N)ncnc32)C1 (stereo not shown) [Compound 23] | 7600 nM | 14000 nM | 1210 nM |  |  | 1950 nM | 810 nM |  |  |  |  | 
4 | NCC1CC(n2cc(-c3cccc(NCc4ccccc4)c3)c3c(N)ncnc32)C1 (stereo not shown) [Compound 25] | 820 nM | 3000 nM |  |  |  | 3600 nM | 3700 nM | 390 nM | 1500 nM | 1200 nM | 204 to 206 °C | 
5 | NCC1CC(n2cc(-c3ccco3)c3c(N)ncnc32)C1 (stereo not shown) [Compound 38] |  | 17000 nM | 18000 nM |  |  | 2600 nM |  | 2300 nM |  |  |  | 8800 nM
6 | NCC1CC(n2cc(-c3ccoc3)c3c(N)ncnc32)C1 (stereo not shown) [Compound 39] |  |  | 15000 nM |  |  | 2500 nM | 8500 nM |  |  |  |  | 
7 | NCC1CC(n2cc(-c3ccsc3)c3c(N)ncnc32)C1 (stereo not shown) [Compound 40] |  | 18000 nM | 2600 nM |  |  | 8400 nM | 2200 nM | 1800 nM | 9300 nM | 750 nM | 109 to 111 °C | 
8 | NCC1CC(n2cc(-c3cccs3)c3c(N)ncnc32)C1 (stereo not shown) [Compound 41] | 5600 nM | 6200 nM | 3800 nM |  |  | 1600 nM | 2700 nM | 1200 nM | 4800 nM |  |  | 
9 | NCC1CC(n2cc(C#CCO)c3c(N)ncnc32)C1 (stereo not shown) [Compound 47] |  |  |  |  |  | 2550 nM |  |  |  |  |  | 
10 | NCC1CC(n2cc(I)c3c(N)ncnc32)C1 (stereo not shown) [Compound 52] |  | 7500 nM |  |  |  | 250 nM |  | 715 nM | 2600 nM | 1100 nM |  | 
11 | Nc1ncnc2c1c(-c1ccc3occc3c1)cn2C1CC(CNC(=O)C(F)(F)F)C1 (stereo not shown) [Compound 64] |  |  | 3600 nM |  |  | 4400 nM | 330 nM | 1060 nM | 2400 nM | 2450 nM | 92 to 93.5 °C | 
12 | Cc1csc(-c2cn(C3CC(CN)C3)c3ncnc(N)c23)c1 (stereo not shown) [Compound 70] |  | 8500 nM | 7100 nM |  |  | 4450 nM | 1400 nM |  | 2600 nM | 2500 nM |  | 
